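Following 48 hours of exposure in 96-well plates, responses at five concentrations were used to interpolate endpoints linearly. GI50: concentration for 50% inhibition of growth.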 Activity calls are given as the source filed them. Rule as the data show it: active = GI50 up to about 1.1 µM and inactive = higher.
Tests used:
Experiment in all cases: NCI anticancer screen, dose series, 48 h
[1] = test system: SF-539
[2] = test system: M14
[3] = test system: SNB-75
[4] = test system: NCI-H23
[5] = test system: HOP-62
[6] = test system: K562
[7] = test system: OVCAR-8
[8] = test system: SK-MEL-5
[9] = test system: CCRF-CEM
[10] = test system: M19-MEL
[11] = test system: SF-268
[12] = test system: TK-10
[13] = test system: CAKI-1
[14] = test system: SK-MEL-28
[15] = test system: SK-MEL-2
[16] = test system: HL-60
[17] = test system: HCT-116
[18] = test system: OVCAR-5
[19] = test system: MDA-N
[20] = test system: DU-145

Structure (SMILES) | GI50 [1] | GI50 [2] | GI50 [3] | GI50 [4] | GI50 [5] | GI50 [6] | GI50 [7] | GI50 [8] | GI50 [9] | GI50 [10] | GI50 [11] | GI50 [12] | GI50 [13] | GI50 [14] | GI50 [15] | GI50 [16] | GI50 [17] | GI50 [18] | GI50 [19] | GI50 [20]
CC(=O)OC1COC(Nc2ccc(C(C)=O)cc2)C(OC(C)=O)C1OC(C)=O (stereo not given) | > 100 µM (inactive) | > 100 µM (inactive) | > 100 µM (inactive) | > 100 µM (inactive) | > 100 µM (inactive) | > 100 µM (inactive) | > 100 µM (inactive) | > 100 µM (inactive) | > 100 µM (inactive) | > 100 µM (inactive) | > 100 µM (inactive) | > 100 µM (inactive) | > 100 µM (inactive) | > 100 µM (inactive) | > 100 µM (inactive) |  |  |  |  | 
CCOC(=O)NC(=O)c1cn(CCCCCCCCCCC(=O)N2CCN(CCn3cc(C(=O)NC(=O)OCC)c(=O)[nH]c3=O)CC2)c(=O)[nH]c1=O | > 100 µM (inactive) | > 100 µM (inactive) | > 100 µM (inactive) | > 100 µM (inactive) | > 100 µM (inactive) | > 100 µM (inactive) | > 100 µM (inactive) | > 100 µM (inactive) | > 100 µM (inactive) | > 100 µM (inactive) |  | > 100 µM (inactive) | > 100 µM (inactive) | > 100 µM (inactive) |  | > 100 µM (inactive) | > 100 µM (inactive) |  |  | 
COC1OC2COC(c3ccccc3)OC2C(O)C1Br (stereo not given) | > 100 µM (inactive) | > 100 µM (inactive) |  | > 100 µM (inactive) | > 100 µM (inactive) | > 100 µM (inactive) | > 100 µM (inactive) | > 100 µM (inactive) | > 100 µM (inactive) | > 100 µM (inactive) | > 100 µM (inactive) | > 100 µM (inactive) | > 100 µM (inactive) | > 100 µM (inactive) |  | > 100 µM (inactive) | > 100 µM (inactive) | > 100 µM (inactive) |  | 
CC1=C(c2ccccc2)CON(c2ccccc2)C1 | 40.6 µM (inactive) | 33.4 µM (inactive) |  | 51.5 µM (inactive) | 66.2 µM (inactive) | 30.1 µM (inactive) | 33.5 µM (inactive) | 20.5 µM (inactive) | 25.1 µM (inactive) | 38.7 µM (inactive) | 39.9 µM (inactive) |  | 39.6 µM (inactive) | 31 µM (inactive) | 26.6 µM (inactive) | 26.6 µM (inactive) | 24.7 µM (inactive) | 32.9 µM (inactive) |  | 
C/C(=C1/CCC/C(=C(/C)c2ccccc2)C1=O)c1ccccc1 | 62.4 µM (inactive) | 33.3 µM (inactive) | 63.1 µM (inactive) | 27.5 µM (inactive) |  | 18.3 µM (inactive) | 41.7 µM (inactive) | 22.8 µM (inactive) | 22.2 µM (inactive) | 24.9 µM (inactive) | 45.7 µM (inactive) | > 100 µM (inactive) |  | 36.3 µM (inactive) | 15.1 µM (inactive) | 10.7 µM (inactive) | 18.5 µM (inactive) | 27.2 µM (inactive) |  | 
O=C1CC2Sc3ccccc3N=C2N1c1ccc(Cl)cc1Cl (stereo not given) |  | 71 µM (inactive) | 99.1 µM (inactive) | 87.7 µM (inactive) | > 100 µM (inactive) |  | 59.3 µM (inactive) | 81.5 µM (inactive) | 17.1 µM (inactive) | 50 µM (inactive) | 40.9 µM (inactive) | > 100 µM (inactive) |  | 93.3 µM (inactive) | 46.6 µM (inactive) | 18.8 µM (inactive) | 38.2 µM (inactive) | > 100 µM (inactive) |  | 
C/C(=C\COc1cc(O)c2c(c1)C(=O)c1cc(C)cc(O)c1C2=O)CCC1OC1(C)C (stereo not given) | 74 µM (inactive) | > 100 µM (inactive) | 28.2 µM (inactive) | > 100 µM (inactive) | 46 µM (inactive) | 83.8 µM (inactive) | 47.9 µM (inactive) | 31.2 µM (inactive) | 11.2 µM (inactive) |  | 42.3 µM (inactive) | 40.3 µM (inactive) | 21 µM (inactive) | > 100 µM (inactive) | > 100 µM (inactive) | > 10 µM (inactive) | 77.8 µM (inactive) | > 100 µM (inactive) | > 100 µM (inactive) | > 100 µM (inactive)
COC(=O)CC1NC(=O)C1C(C)(OC)OC (stereo not given) | > 100 µM (inactive) | > 100 µM (inactive) | 30.3 µM (inactive) | > 100 µM (inactive) | > 100 µM (inactive) | > 100 µM (inactive) | > 100 µM (inactive) | > 100 µM (inactive) | > 100 µM (inactive) | > 100 µM (inactive) | > 100 µM (inactive) | > 100 µM (inactive) |  | > 100 µM (inactive) | > 100 µM (inactive) | > 100 µM (inactive) | > 100 µM (inactive) |  |  | 
c1ccc2c(c1)ccn2CCc1c[nH]c2ccccc12 | > 10 µM (inactive) | > 10 µM (inactive) | > 10 µM (inactive) | > 10 µM (inactive) | > 10 µM (inactive) | > 10 µM (inactive) | > 10 µM (inactive) | > 10 µM (inactive) | > 10 µM (inactive) |  | > 10 µM (inactive) | > 10 µM (inactive) | > 10 µM (inactive) | > 10 µM (inactive) | > 10 µM (inactive) | > 10 µM (inactive) | > 10 µM (inactive) | > 10 µM (inactive) | > 10 µM (inactive) | > 10 µM (inactive)
CCCCCCCCCCCCCOCCOCCOCCCCC(O)CCCCCCCCCC1=C[C@H](C)OC1=O (stereo not given in full) | 18.7 µM (inactive) | 27.2 µM (inactive) | 21.1 µM (inactive) | 13.7 µM (inactive) | 30.8 µM (inactive) | 21.2 µM (inactive) | 18.7 µM (inactive) | 6.93 µM (inactive) | 9.86 µM (inactive) |  | 18.1 µM (inactive) | 2.94 µM (inactive) | 19.1 µM (inactive) | 11.4 µM (inactive) | 23 µM (inactive) | 0.356 µM (active) | 0.766 µM (active) | 28 µM (inactive) | 15 µM (inactive) | 21.7 µM (inactive)
COc1ccc(-c2cc(-c3ccccc3)nc(/N=C\c3ccccc3)n2)c(O)c1 | > 100 µM (inactive) | > 100 µM (inactive) | > 100 µM (inactive) | > 100 µM (inactive) | > 57.7 µM (inactive) | 2.44 µM (inactive) | > 70.1 µM (inactive) | 7.05 µM (inactive) | 4.06 µM (inactive) |  | > 93.5 µM (inactive) | > 100 µM (inactive) | 3.02 µM (inactive) | > 100 µM (inactive) | 6.52 µM (inactive) | 2.71 µM (inactive) | > 26.6 µM (inactive) | > 100 µM (inactive) | 5.02 µM (inactive) | 7.62 µM (inactive)
CCc1nc(N)nc(N)c1-c1ccc(NC)c([N+](=O)[O-])c1 | 1.47 µM (inactive) | 0.959 µM (active) | 10.8 µM (inactive) | 0.944 µM (active) | 1.79 µM (inactive) | 0.0631 µM (active) | 0.662 µM (active) | 0.63 µM (active) | 0.531 µM (active) |  | 0.815 µM (active) | 28.2 µM (inactive) | 0.767 µM (active) | 43.7 µM (inactive) | 21.2 µM (inactive) | 0.308 µM (active) | 0.219 µM (active) | 17.1 µM (inactive) | 0.173 µM (active) | 2.14 µM (inactive)
NC(=O)NC1NC(=O)NC1=O (stereo not given) [ALLANTOIN] | > 100 µM (inactive) | > 100 µM (inactive) | > 100 µM (inactive) | > 100 µM (inactive) | > 100 µM (inactive) | > 100 µM (inactive) | > 100 µM (inactive) | > 100 µM (inactive) | > 100 µM (inactive) |  | > 100 µM (inactive) | > 100 µM (inactive) | > 100 µM (inactive) | > 100 µM (inactive) | > 100 µM (inactive) | > 100 µM (inactive) | > 100 µM (inactive) | > 100 µM (inactive) | > 100 µM (inactive) | > 100 µM (inactive)
COC(=S)OC1CC(n2cnc3c(=O)[nH]cnc32)OC1CO[Si](C)(C)C(C)(C)C (stereo not given) | > 100 µM (inactive) | > 100 µM (inactive) | > 100 µM (inactive) | > 100 µM (inactive) | > 100 µM (inactive) | > 100 µM (inactive) | > 100 µM (inactive) | > 100 µM (inactive) | > 100 µM (inactive) |  | > 100 µM (inactive) | > 100 µM (inactive) | > 100 µM (inactive) | > 100 µM (inactive) | > 100 µM (inactive) | > 100 µM (inactive) | > 100 µM (inactive) | > 100 µM (inactive) | > 100 µM (inactive) | > 100 µM (inactive)
COc1cc2nc(Sc3c([N+](=O)[O-])ncn3C)[nH]c2cc1OC | 18.6 µM (inactive) | 87.5 µM (inactive) | 28.4 µM (inactive) | 26.1 µM (inactive) | > 100 µM (inactive) |  | 15.1 µM (inactive) | 18.9 µM (inactive) |  | 33.1 µM (inactive) | 19.2 µM (inactive) | 26.9 µM (inactive) | 4.47 µM (inactive) | 20.5 µM (inactive) |  |  | 27.4 µM (inactive) | 98.6 µM (inactive) |  | 
CCOC(=O)C(CCN1CCC2(CC1)C(=O)N(C)CN2c1ccccc1)C(=O)OCC | > 100 µM (inactive) | > 100 µM (inactive) | > 100 µM (inactive) | > 100 µM (inactive) | > 100 µM (inactive) | > 100 µM (inactive) | > 100 µM (inactive) | > 100 µM (inactive) | > 100 µM (inactive) |  | > 100 µM (inactive) | > 100 µM (inactive) | > 100 µM (inactive) | > 100 µM (inactive) | > 100 µM (inactive) | > 100 µM (inactive) | > 100 µM (inactive) | > 100 µM (inactive) | > 100 µM (inactive) | > 100 µM (inactive)
